Laboratory results as given in US20230338609A1, “MEDICAL DEVICES AND MATERIALS COMPRISING BIODEGRADABLE POLYESTERS” (AMICOAT AS, priority 2020, published 2023).
Values after ≈ are worked out from the molar mass of the structure shown.

Key:
[1] = tested on: C. albicans; settings: Table 5
[2] = tested on: Staphylococcus aureus, strain ATCC 25923; settings: ATCC 25923
[3] = tested on: Methicillin resistant Staphylococcus epidermidis (MRSE) strain ATCC 27626; settings: ATCC 27626
[4] = tested on: Propionibacterium acnes- antibiotic-resistant clinical isolate; settings: P. acnes antibiotic-resistant
[5] = tested on: S. pyogenes; settings: Table 5
[6] = tested on: Streptococcus pneumoniae - penicillin-susceptible clinical isolate; format: cell-based
Source text: (§1) Cation-adjusted Mueller-Hinton broth (Oxoid Ltd., Basingstoke, UK and Trek Diagnostic Systems Ltd., East Grinstead, UK) (supplemented with 5% laked horse blood for Streptococcus spp., Corynebacterium jeikeium and Listeria monocytogenes) was used for aerobic bacteria, with an initial inoculum of approximately 10^5 colony-forming units (CFU)/mL.

[7] = tested on: Staphylococcus aureus - teicoplanin-intermediate clinical isolate; format: cell-based
Source text: as §1

[8] = tested on: Streptococcus pyogenes - Macrolide (M-type) resistance clinical isolate; format: cell-based; settings: - Macrolide (M-type) resistance clinical isolate
Source text: as §1

[9] = tested on: Escherichia coli ATCC32518 - β-lactamase positive type strain; format: cell-based
Source text: as §1

[10] = tested on: Klebsiella aerogenes NCTC11228 - antibiotic-susceptible type strain; format: cell-based
Source text: as §1

[11] = tested on: Group G Streptococcus - antibiotic-susceptible clinical isolate; format: cell-based
Source text: as §1

[12] = tested on: Group G Streptococcus - macrolide-resistant clinical isolate; format: cell-based
Source text: as §1

[13] = tested on: Streptococcus agalactiae - antibiotic-susceptible clinical isolate; format: cell-based
Source text: as §1

[14] = tested on: HT2001254 Staphylococcus aureus (MRSA) - PVL positive; format: cell-based
Source text: as §1

[15] = tested on: Escherichia coli - multi-drug resistant clinical isolate; format: cell-based
Source text: as §1

[16] = tested on: Klebsiella aerogenes - multi-drug resistant clinical isolate; format: cell-based
Source text: as §1

[17] = tested on: P. aeruginosa; settings: Table 5
[18] = tested on: Cryptococcus neoformans - G.R. Micro collection; format: cell-based
Protocol: (§2) Yeast and filamentous fungal MIC were performed in MOPS buffered RPMI 1640 medium (MOPS buffer obtained from Sigma Aldrich Ltd., RPMI 1640 obtained from Invitrogen Ltd, Paisley, Scotland). The yeast inocula were in the range 7.5×10^2-4×10^3 CFU/mL and the filamentous fungi approximately 8×10^3-1×10^5 CFU/mL

[19] = tested on: Microsporum canis - G.R. Micro collection; format: cell-based
Protocol: as §2

[20] = tested on: Candida parapsilosis ATCC90018 - reference strain; format: cell-based
Protocol: as §2

[21] = tested on: Trichophyton interdigitale - G.R. Micro collection; format: cell-based
Protocol: as §2

[22] = tested on: Trichophyton mentagrophytes - G.R. Micro collection; format: cell-based
Protocol: as §2

[23] = tested on: Candida albicans ATCC90028 - reference strain; format: cell-based
Protocol: as §2

[24] = tested on: Candida tropicalis ATCC750 - reference strain; format: cell-based
Protocol: as §2

[25] = tested on: Aspergillus niger - G.R. Micro collection; format: cell-based
Protocol: as §2

[26] = tested on: Candida albicans ATCC24433 - reference strain; format: cell-based
Protocol: as §2

[27] = tested on: Haemophilus influenzae - β -lactamase positive clinical isolate
[28] = tested on: Haemophilus influenzae β- lactamase negative ampicillin-resistant clinical isolate
[29] = tested on: Staphylococcus aureus FDA486; test: Murine skin infection model, topical treatment; format: in vivo; settings: mice; 2% cream; three treatments at three hourly intervals; biopsy three hours after last
Protocol: (§3) The skin of mice was infected with Staphylococcus aureus or Streptococcus pyogenes and subsequently given a total of three treatments at three hourly intervals. Three hours after the last treatment, skin biopsies were collected and the number of colony forming units (CFUs) present in the skin sample was determined. Results are shown in FIGS. 1 and 2, expressed as the number of colony forming units per mouse.
as §3, with “3, 4” for “1”, “5” for “2,”

[30] = tested on: Methicillin resistant Staphylococcus aureus (MRSA) strain ATCC 33591; settings: ATCC 33591
[31] = tested on: Propionibacterium acnes- antibiotic-susceptible clinical isolate; test: MIC microbroth dilution (CLSI); format: cell-based; settings: P. acnes antibiotic-susceptible
Protocol: Supplemented Brucella broth (SBB) was used for the anaerobic strains with an inoculum of approximately 10^6 CFU/mL. SBB is a broth consisting of 1% peptone, 0.5% ‘Lab-lemco’, 1% glucose and 0.5% sodium chloride supplemented with 5 […] vitamin K (both obtained from Sigma Aldrich Ltd.)

[32] = tested on: E. coli; settings: Table 5

For `CCCCCCNC(=O)[C@H](CCCNC(=N)N)NC(=O)[C@H](Cc1c(C(C)(C)C)[nH]c2c(C(C)(C)C)cc(C(C)(C)C)cc12)NC(=O)[C@@H](N)CCCNC(=N)N` [Compound 8], the “C. albicans (MIC)” value [1] was 5 µg/mL, the “S. aureus (MIC)” value [2] was 2 µg/mL and the “MRSE (MIC)” value [3] was <1 µg/mL. The MIC [4] was 2 µg/mL (≈ 2.6 µM), the “S. pyogenes (MIC)” value [5] was 2 µg/mL and the MIC [6] was 8 µg/mL (≈ 10.4 µM). It also gave an MIC [7] of 4 µg/mL (≈ 5.21 µM), an MIC [8] of 8 µg/mL (≈ 10.4 µM) and an MIC [9] of 8 µg/mL (≈ 10.4 µM). It also gave an MIC [10] of 8 µg/mL (≈ 10.4 µM), an MIC [11] of 8 µg/mL (≈ 10.4 µM) and an MIC [12] of 8 µg/mL (≈ 10.4 µM). It also gave an MIC [13] of 8 µg/mL (≈ 10.4 µM), an MIC [14] of 4 µg/mL (≈ 5.21 µM) and an MIC [15] of 8 µg/mL (≈ 10.4 µM). For the same compound, the MIC [16] was 8 µg/mL (≈ 10.4 µM), the “P. aeruginosa (MIC)” value [17] was 5 µg/mL and the MIC [18] was 2 µg/mL (≈ 2.6 µM). It also gave an MIC [19] of 4 µg/mL (≈ 5.21 µM), an MIC [20] of 8 µg/mL (≈ 10.4 µM) and an MIC [21] of 4 µg/mL (≈ 5.21 µM). For the same compound, the MIC [22] was 4 µg/mL (≈ 5.21 µM), the MIC [23] was 4 µg/mL (≈ 5.21 µM) and the MIC [24] was 4 µg/mL (≈ 5.21 µM). For the same compound, the MIC [25] was 4 µg/mL (≈ 5.21 µM), the MIC [26] was 8 µg/mL (≈ 10.4 µM) and the MIC [27] was 4 µg/mL (≈ 5.21 µM). The MIC [28] was 8 µg/mL (≈ 10.4 µM), the “number of CFUs in skin biopsy vs controls” value [29] was “more effective at reducing the number of CFUs than the placebo and fucidin or bactroban” and the “MRSA (MIC)” value [30] was 2 µg/mL. The MIC [31] was 4 µg/mL (≈ 5.21 µM) and the “E. coli (MIC)” value [32] was 5 µg/mL.
